Where a name gives a salt, the structure may show the parent alone.
Target: T1, MPO (purified from human polynuclear leukocytes) (Homo sapiens, UniProt P05164)
T1 construct: purified from human polynuclear leukocytes; purchased Calbiochem/EMD Biosciences; host or cells: human polynuclear leukocytes (natural source)
Assay: MPO Amplex Red Activity Assay
Assay type: biochemical
Settings: Table 1, 2 μM H2O2, pH 7.4
How it was run: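 Potency is given as kinact/KI: kobs values from 600 s progress curves, minus the uninhibited rate, are fit against inhibitor concentration. Reactions use 2 μM H2O2, 30 μM Amplex Red, pH 7.4 phosphate buffer with NaCl, DTPA and 2% DMSO, started with […] human MPO. Readout is resorufin fluorescence, catalase background subtracted.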

T1 sequence (P05164 279-745 limits assumed): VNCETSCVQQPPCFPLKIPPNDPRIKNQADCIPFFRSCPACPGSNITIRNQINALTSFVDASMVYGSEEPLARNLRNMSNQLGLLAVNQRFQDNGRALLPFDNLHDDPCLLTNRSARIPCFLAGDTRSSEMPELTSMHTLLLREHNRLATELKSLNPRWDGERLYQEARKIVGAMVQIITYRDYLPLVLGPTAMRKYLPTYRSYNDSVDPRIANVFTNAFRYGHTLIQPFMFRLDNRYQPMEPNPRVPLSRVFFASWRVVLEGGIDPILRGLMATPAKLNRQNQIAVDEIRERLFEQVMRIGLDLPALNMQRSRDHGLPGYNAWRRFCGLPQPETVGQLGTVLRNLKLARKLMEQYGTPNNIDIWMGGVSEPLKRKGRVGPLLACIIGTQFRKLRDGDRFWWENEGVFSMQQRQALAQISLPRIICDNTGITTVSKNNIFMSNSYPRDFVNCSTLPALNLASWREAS
T1 sequence (P05164 165-273 limits assumed): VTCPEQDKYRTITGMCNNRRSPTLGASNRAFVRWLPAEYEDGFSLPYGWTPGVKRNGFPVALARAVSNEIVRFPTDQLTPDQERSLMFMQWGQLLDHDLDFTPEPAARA

| Compound | MPO kinact/Ki |
| --- | --- |
| Cl.NCCCOc1ccccc1-c1cc(=O)[nH]c(=S)n1CCN [Example 79, 1-(2-aminoethyl)-6-[2-(3-aminopropoxy)phenyl]-2-thioxo-2,3-dihydropyrimidin-4(1H)-one hydrochloride] | 1580 1/s per M |
| COCCn1c(-c2ncc[nH]2)cc(=O)[nH]c1=S [Example 154, 6-(1H-imidazol-2-yl)-1-(2-methoxyethyl)-2-thioxo-2,3-dihydropyrimidin-4(1H)-one] | 1070 1/s per M |
| COc1ccc(Cl)cc1-c1cc(=O)[nH]c(=S)n1C[C@@H]1CCCN1 [Example 123, 6-(5-chloro-2-methoxyphenyl)-1-[(2S)-pyrrolidin-2-ylmethyl]-2-thioxo-2,3-dihydropyrimidin-4(1H)-one hydrochloride] | 3780 1/s per M |
| C=CCn1c(-c2ccc(OC)cc2OC)cc(=O)[nH]c1=S [Example 266, 1-allyl-6-(2,4-dimethoxyphenyl)-2-thioxo-2,3-dihydropyrimidin-4(1H)-one] | 604 1/s per M |
| COc1ccc(OC)c(-c2cc(=O)[nH]c(=S)n2CCN=C(N)N)c1 [Example 121, 2-{2-[6-(2,5-dimethoxyphenyl)-4-oxo-2-thioxo-3,4-dihydropyrimidin-1(2H)-yl]ethyl}guanidine hydrochloride] | 15800 1/s per M |
| COc1cc(OC)cc(-c2cc(=O)[nH]c(=S)n2CCCN)c1 [Example 85, 1-(3-aminopropyl)-6-(3,5-dimethoxyphenyl)-2-thioxo-2,3-dihydropyrimidin-4(1H)-one hydrochloride] | 10700 1/s per M |
| NCCCn1c(-c2ccc3c(c2)CCO3)cc(=O)[nH]c1=S [Example 38, 1-(3-aminopropyl)-6-(2,3-dihydro-1-benzofuran-5-yl)-2-thioxo-2,3-dihydropyrimidin-4(1H)-one hydrochloride] | 5240 1/s per M |
| COc1ccc(Cl)cc1-c1cc(=O)[nH]c(=S)n1C[C@H](O)CN [Example 114, 1-[(2R)-3-amino-2-hydroxypropyl]-6-(5-chloro-2-methoxyphenyl)-2-thioxo-2,3-dihydropyrimidin-4(1H)-one trifluoroacetate] | 9770 1/s per M |
| COc1ccc(-c2cc(=O)[nH]c(=S)n2CC(O)CN)c(OC)c1 (centres unmarked) [Example 199, 1-(3-amino-2-hydroxypropyl)-6-(2,4-dimethoxyphenyl)-2-thioxo-2,3-dihydropyrimidin-4(1H)-one hydrochloride] | 9080 1/s per M |
| COc1ccc(-c2cc(=O)[nH]c(=S)n2CC(N)=O)cc1OC [Example 83, 2-[6-(3,4-dimethoxyphenyl)-4-oxo-2-thioxo-3,4-dihydropyrimidin-1(2H)-yl]acetamide] | 3510 1/s per M |
| COc1ccc(-c2cc(=O)[nH]c(=S)n2CC2CCNC2)c(OC)c1 (centres unmarked) [Example 212, 6-(2,4-dimethoxyphenyl)-1-(pyrrolidin-3-ylmethyl)-2-thioxo-2,3-dihydropyrimidin-4(1H)-one hydrochloride] | 7590 1/s per M |
| COCCn1c(-c2cccc3ccccc23)cc(=O)[nH]c1=S [Example 319, 1-(2-methoxyethyl)-6-(1-naphthyl)-2-thioxo-2,3-dihydropyrimidin-4(1H)-one] | 7810 1/s per M |
| CCOC(=O)Cn1c(-c2ccc(OC)cc2OC)cc(=O)[nH]c1=S [Example 221, ethyl [6-(2,4-dimethoxyphenyl)-4-oxo-2-thioxo-3,4-dihydropyrimidin-1(2H)-yl]acetate] | 6230 1/s per M |
| N=C(N)NCCn1c(-c2ccccc2-n2nccn2)cc(=O)[nH]c1=S [Example 130, 1-(2-{4-oxo-2-thioxo-6-[2-(2H-1,2,3-triazol-2-yl)phenyl]-3,4-dihydropyrimidin-1(2H)-yl}ethyl)guanidine hydrochloride] | 4830 1/s per M |
| COc1ccc(-c2cc(=O)[nH]c(=S)n2CC(O)CO)c(OC)c1 (centres unmarked) [Example 201, 1-(2,3-dihydroxypropyl)-6-(2,4-dimethoxyphenyl)-2-thioxo-2,3-dihydropyrimidin-4(1H)-one] | 4350 1/s per M |
| NC(=O)Cn1c(-c2cccc3ccoc23)cc(=O)[nH]c1=S [Example 31, 2-[6-(1-benzofuran-7-yl)-4-oxo-2-thioxo-3,4-dihydropyrimidin-1(2H)-yl]acetamide] | 7680 1/s per M |
| COCCn1c(-c2nc3ccccc3s2)cc(=O)[nH]c1=S [Example 75, 6-(1,3-benzothiazol-2-yl)-1-(2-methoxyethyl)-2-thioxo-2,3-dihydropyrimidin-4(1H)-one] | 2040 1/s per M |
| COc1ncc(C)cc1-c1cc(=O)[nH]c(=S)n1CCO [Example 150, 1-(2-hydroxyethyl)-6-(2-methoxy-5-methylpyridin-3-yl)-2-thioxo-2,3-dihydropyrimidin-4(1H)-one] | 8970 1/s per M |
| COc1ccc(C#N)cc1-c1cc(=O)[nH]c(=S)n1CC(N)=O [Example 170, 2-[6-(5-cyano-2-methoxyphenyl)-4-oxo-2-thioxo-3,4-dihydropyrimidin-1(2H)-yl]acetamide] | 4030 1/s per M |
| COc1ccc(-c2cc(=O)[nH]c(=S)n2CCOC(C)C)cc1 [Example 172, 1-(2-isopropoxyethyl)-6-(4-methoxyphenyl)-2-thioxo-2,3-dihydropyrimidin-4(1H)-one] | 2950 1/s per M |
| COc1ccc(-c2cc(=O)[nH]c(=S)n2Cc2ccn(C(N)=S)n2)c(OC)c1 [Example 261, 3-{[6-(2,4-dimethoxyphenyl)-4-oxo-2-thioxo-3,4-dihydropyrimidin-1(2H)-yl]methyl}-1H-pyrazole-1-carbothioamide] | 2280 1/s per M |

Same assay, conditions: Table 1A, 2 μM H2O2, pH 7.4

| Compound | MPO kinact/Ki |
| --- | --- |
| CCNC(=N)NCCCn1c(-c2cc(Cl)ccc2OC)cc(=O)[nH]c1=S [Example 449, 1-{3-[6-(5-chloro-2-methoxyphenyl)-4-oxo-2-thioxo-3,4-dihydropyrimidin-1(2H)-yl]propyl}-2-ethylguanidine] | 12000 1/s per M |
| COc1ccc(-c2cc(=O)[nH]c(=S)n2CC(N)=O)c(OCCO)c1 [Example 420, 2-{6-[2-(2-hydroxyethoxy)-4-methoxyphenyl]-4-oxo-2-thioxo-3,4-dihydropyrimidin-1(2H)-yl}acetamide] | 5210 1/s per M |
| COc1ccc(-c2cc(=O)[nH]c(=S)n2CCN(C)C(=O)CN)c(OC)c1 [Example 440, N-{2-[6-(2,4-dimethoxyphenyl)-4-oxo-2-thioxo-3,4-dihydropyrimidin-1(2H)-yl]ethyl}-N-methylglycinamide] | 3310 1/s per M |
| COc1ccc(-c2cc(=O)[nH]c(=S)n2CCC#N)c(OC)c1 [Example 408, 3-[6-(2,4-dimethoxyphenyl)-4-oxo-2-thioxo-3,4-dihydropyrimidin-1(2H)-yl]propanenitrile] | 9890 1/s per M |
| COc1ccc(F)cc1-c1cc(=O)[nH]c(=S)n1CCONC(=N)N [Example 419, 1-{2-[6-(5-fluoro-2-methoxyphenyl)-4-oxo-2-thioxo-3,4-dihydropyrimidin-1(2H)-yl]ethoxy}guanidine] | 1200 1/s per M |
